The values below come from PubChem BioAssay (NCI).

Several values for one entry are separate records, joined by “and”; a condition that tells them apart may be missing. Identical values can stand only once.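 Dose response: 5 concentrations. Exposure: 48 h. Format: 96-well plates. Endpoint: linear interpolation; highest concentration if not reached. GI50: concentration for 50% inhibition of growth. TGI: total growth inhibition.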 *1 amine or outer side, *2 acyl side, *3 side chain or, on linkers, in order; H or OH if unused. Where a SMILES comes first, the peptide text is derived from it. Bridges are numbered along the chain shown (N, C = ends). Roman numbers before positions name the chains, in order. [ ]: non-standard residue; d: D form. Actinocin(9to1) = Cc1c2oc3c(C)ccc(C(=O)[*:1])c3nc-2c(C(=O)[*:2])c(N)c1=O; NMeF = CN[CH](Cc1ccccc1)C(=O)O; Sar = CNCC(=O)O A value given as a limit tells only on which side of the number the result lay.

Holding throughout (assay): growth of human tumour cells (NCI), 48 h
The test system of assay [1] is 786-0 renal.
The test system of assay [2] is DU-145 prostate.
For assay [3], the system named is HOP-62 NSCLC.
The test system of assay [4] is HOP-92 NSCLC.
Assay [5] concerns IGROV1 ovarian.
In assay [6] the test system is MDA-MB-231 breast.
The subject of assay [7] is OVCAR-3 ovarian.
The test system of assay [8] is RXF 393 renal.
Assay [9] deals with SF-295 CNS.
In assay [10] the test system is CAKI-1 renal.

For `O=C(CCCCC(=O)N/N=C\c1ccccc1O)N/N=C\c1ccccc1O`, the GI50 was 5.13 µM in assay [1]; 5.22 µM in assay [2]; 4.12 µM in assay [3]; 11.3 µM in assay [4]; 3.49 µM in assay [5]; 1.9 µM in [6]. Besides, the values for the GI50 in [7], in assay [8] and in assay [9] were 3.87 µM, 3.76 µM and 1.98 µM, respectively. Besides, the TGI was over 100 µM in [1]; over 100 µM in assay [2]; 71.8 µM in assay [3]; over 100 µM in assay [4]; over 100 µM in assay [5]; 57.5 µM in [6]. Also, the TGI was over 100 µM in assay [7], over 100 µM in [8] and 6.55 µM in assay [9].
Regarding `Cc1c2oc3c(C)ccc(C(=O)NC4C(=O)NC(C(C)C)C(=O)N5CCCC5C(=O)N(C)CC(=O)N(C)C(Cc5ccccc5)C(=O)OC4C)c3nc-2c(C(=O)NC2C(=O)NC(C(C)C)C(=O)N3CCCC3C(=O)N(C)CC(=O)N(C)C(Cc3ccccc3)C(=O)OC2C)c(N)c1=O` (stereo unspecified) (I: TVP[Sar][NMeF] / II: TVP[Sar][NMeF]; ester I:1-I:C, II:1-II:C; linker I:N-II:N via Actinocin(9to1); configuration not given here), the GI50 in assay [1] is < 0.01 µM and 0.00327 µM; in assay [5], < 0.01 µM and 0.0028 µM; in assay [6] it was < 0.01 µM and 0.0317 µM. Further, the TGI in assay [1] was over 1 µM; in assay [10], 2.79 µM and > 0.223 µM; in assay [2], < 0.01 µM and 0.0698 µM; in assay [3], < 0.0134 µM and 0.0328 µM; in assay [4], < 0.0476 µM and 0.0606 µM; in assay [7], < 0.01 µM and 0.0453 µM. The TGI is < 0.01 µM and 0.0305 µM in assay [8]; < 0.0141 µM and 0.108 µM in [9].
Regarding `COc1ccccc1C(=O)N(C)c1ccc(Cl)c(C(=O)OC(C)C)c1`, the TGI in assay [1], in assay [10], in [2], in [4], in assay [5] and in assay [6] was over 100 µM throughout. The TGI in [7] was over 100 µM; in assay [9], 94.5 µM.
On to `Nc1ncc(-c2cccc(S(N)(=O)=O)c2)c2scc(-c3ccc(F)c(Cl)c3)c12`, for which the GI50 was 6.02 µM in assay [1]; 5.51 µM in assay [10]; 5.55 µM in assay [2]; 5.47 µM in assay [3]; 5.14 µM in [4]; 6.58 µM in assay [5]. The GI50 is 5.94 µM in assay [6], 5.42 µM in [7], 3.79 µM in assay [8] and 5.66 µM in [9]. The TGI in assay [1] is 17 µM; in assay [10], 21.4 µM; in [2], 15.3 µM; in assay [3], 12.6 µM; in assay [4], 18.4 µM; in assay [5] it was 22.3 µM. The TGI is over 25 µM in assay [6], 12.5 µM in assay [7], 9.43 µM in assay [8] and 13.8 µM in assay [9].
Regarding `O=C1C(Cl)=C(Nc2cccc(C(F)(F)F)c2)C(=O)N1Cc1ccc(Cl)cc1`, the GI50 in [1] was under 0.0324 µM; in [10] it was 0.289 µM; in assay [2], 1.13 µM; in assay [3] it was 0.835 µM; in [4], 15 µM; in [5], 2.76 µM. The figures for the GI50 in [6] and in assay [7] were 0.207 µM and 0.16 µM, respectively. Besides, the TGI in assay [1] was 13.5 µM; in assay [10], 16.4 µM; in [2], 7.92 µM; in [3] it was 17.4 µM; in [4], 33.1 µM; in [5], over 48.5 µM. For the same molecule, the TGI in [6] came to 8.74 µM; in assay [7] it was 5.76 µM; in assay [9], 16.2 µM.
For `COc1cc(NC(=O)C2=C(N3CCOCC3)/C(=C/c3ccc(Cl)cc3)CC2)cc(OC)c1OC`, the GI50 in assay [1] is 10.4 µM; in assay [10] it was 23 µM; in assay [2] it was over 100 µM; in assay [3] it was 4.66 µM; in assay [5] it was 21.3 µM; in [6] it was 26.5 µM. Moreover, the GI50 in assay [7] was 24.9 µM; in assay [9], 7.09 µM. The TGI in assay [1] was 33.1 µM; in assay [10], over 100 µM; in assay [2], over 100 µM; in [3] it was 21.2 µM; in assay [5] it was over 100 µM; in [6], over 100 µM. The TGI in [7] is over 100 µM; in [9], 40.7 µM.
In the case of `C=C1C(=O)O[C@H]2[C@H]1CC/C(COC(=O)NCc1ccc(Cn3c(=O)sn(-c4ccccc4)c3=O)cc1)=C\CC[C@@]1(C)O[C@@H]21`, the GI50 is 1.81 µM in [1]; 2.49 µM in assay [10]; 1.71 µM in [2]; 12.4 µM in assay [3]; 1.82 µM in [4]; 2.09 µM in [5]. Also, the GI50 in assay [6] is 1.71 µM; in assay [7], 1.68 µM; in [8], 1.75 µM; in assay [9], 8.52 µM. Besides, the TGI stood at 3.37 µM in assay [1]; 6.1 µM in [10]; 3.12 µM in assay [2]; 26.3 µM in assay [3]; 3.44 µM in assay [4]; 4.2 µM in assay [5]. The TGI in assay [6] amounted to 3.52 µM; in [7], 3.12 µM; in assay [8] it was 3.4 µM; in assay [9], 21.8 µM.
As to `O=C(O)/C(=C\c1ccncc1)c1cccc2ccccc12`, the TGI in assay [1], in assay [2], in assay [3], in assay [4], in assay [5] and in assay [6] was over 100 µM each time. For the same molecule, the TGI in assay [7], in [8] and in assay [9] was over 100 µM in each case.
`Cc1cc(Nc2cc(N)ncn2)c(=O)n2c1C(=O)NC21CCCCC1`: the GI50 was 22.9 µM in assay [1]; over 100 µM in assay [2]; 31.2 µM in assay [3]; 13.3 µM in assay [4]; 46.7 µM in assay [5]; 82 µM in assay [6]. Further, the GI50 in assay [7] was over 100 µM; in assay [8] it was 37.7 µM; in [9], 46.8 µM. For the same molecule, the TGI in assay [1], in [2], in assay [3], in assay [4], in [5] and in assay [6] was over 100 µM throughout. The TGI in assay [7], in assay [8] and in assay [9] was over 100 µM each time.
Take `Oc1ccc(N=Nc2ccccn2)c(O)c1`: the GI50 is 0.394 µM in assay [1]; 1.55 µM in assay [2]; 0.832 µM in assay [3]; 2.09 µM in assay [4]; 0.595 µM in assay [5]; 0.641 µM in [6]. Besides, the GI50 was 0.401 µM in assay [7], 1.19 µM in assay [8] and 0.522 µM in assay [9]. The TGI in [1], in [2], in [3], in [4], in [5] and in assay [6] was over 100 µM in each case. The TGI was over 100 µM in assay [7], 33.6 µM in assay [8] and over 100 µM in assay [9].
With `Cc1c(Cl)cccc1NC(=O)c1sc2nc3c(cc2c1N)CCCCC3`, the GI50 was 0.207 µM in [1]; 0.598 µM in assay [2]; 0.411 µM in [3]; 0.266 µM in [4]; 0.376 µM in assay [5]; 0.827 µM in [6]. Besides, the GI50 in assay [7] was 0.173 µM; in [8] it was 0.217 µM; in [9], 0.17 µM. Also, the TGI in assay [1] was 14 µM; in [2], 17.3 µM; in assay [3], 45.3 µM; in assay [4], 19.2 µM; in assay [5], over 50 µM; in assay [6], over 50 µM. Also, the TGI in [7] turned out to be 1.69 µM; in [8], 5.57 µM; in assay [9], 10 µM.
Consider `C[C@@H](Nc1nc(Nc2ccc(F)c(Cl)c2)nc2ccccc12)C1CC1`, for which the GI50 was 1.69 µM in assay [1]; 3.18 µM in assay [10]; 7.19 µM in assay [2]; 11.2 µM in [3]; 1.6 µM in [4]; 3.06 µM in assay [5]. Moreover, the results for the GI50 in assay [6], in [7] and in assay [9] were 2.46 µM, 3.21 µM and 1.88 µM, respectively. The TGI was 3.45 µM in assay [1]; 15.7 µM in assay [10]; 20.5 µM in [2]; 25 µM in [3]; 5.79 µM in assay [4]; 17.7 µM in [5]. In addition, the TGI worked out at 7.61 µM in assay [6], 12.7 µM in assay [7] and 8.92 µM in assay [9].
Consider `O=[N+]([O-])c1cccc2nccc(NCCCO)c12`, for which the TGI is 37 µM in assay [1]; 35.4 µM in assay [10]; 35.3 µM in assay [2]; 35.4 µM in [3]; 27.5 µM in assay [5]; 41.4 µM in assay [6]. Besides, the TGI was 35.3 µM in [7], 21.5 µM in assay [8] and 32 µM in [9].
In the case of `CCCCCn1c(C)cc(/C=C\c2ccc3cc(C)ccc3[n+]2C)c1C`, the GI50 is 0.219 µM in assay [1]; 0.164 µM in assay [10]; 0.0586 µM in [2]; 0.283 µM in assay [3]; 0.109 µM in [4]; 0.0386 µM in [5]. Moreover, the values for the GI50 in assay [6], in assay [7] and in assay [9] were 0.329 µM, 0.0793 µM and 0.0982 µM, respectively. The TGI in [1] is 1.17 µM; in assay [10] it was 0.675 µM; in assay [2], 1.3 µM; in [3], 0.98 µM; in [4], 0.487 µM; in assay [5], 1.11 µM. Besides, the TGI in assay [6] came to 1.71 µM; in [7], 0.911 µM; in [9] it was 0.595 µM.
For the molecule `C=CC1=C(C)C2=NC1=CC1=NC(=C(CC)/C1=C\O)C=C1N=C3C(=C1C)C(=O)[C@H](C(=O)OC)C3=C1NC(=C2)[C@@H](C)[C@@H]1CCC(=O)O`, the TGI in [1], in assay [10], in assay [2], in assay [4], in assay [5] and in [6] was over 100 µM each time. In addition, the TGI in assay [8] was 13.3 µM; in assay [9], over 100 µM.
In the case of `NC(=S)NN=C1CSSC1`, the GI50 is 11.9 µM in assay [1]; 3.61 µM in assay [10]; 4.12 µM in [2]; 2.04 µM in [3]; 2.35 µM in [4]; 5 µM in assay [5]. Also, the figures for the GI50 in [6], in [7] and in assay [8] were 1.77 µM, 2.54 µM and 1.45 µM, respectively. Besides, the TGI in assay [1] was 72.5 µM; in [10] it was 40.3 µM; in assay [2], 16.2 µM; in assay [3], 12.2 µM; in assay [4], 5.89 µM; in assay [5], 63.1 µM. Besides, the TGI stood at 9.86 µM in [6], 10.5 µM in assay [7] and 5.58 µM in assay [8].
Turning to `N#CC1C=Cc2c(ccc3ccccc23)N1C(=O)c1ccccc1` (stereo unspecified), the GI50 was 0.909 µM in assay [1]; 0.108 µM in [10]; 0.26 µM in [2]; 0.387 µM in assay [3]; 3.1 µM in assay [4]; 0.105 µM in [5]. Moreover, the values for the GI50 in [6], in assay [7] and in assay [9] were 0.763 µM, 0.167 µM and 0.0268 µM, respectively. Also, the TGI was over 100 µM in [1]; 1.97 µM in [2]; over 100 µM in assay [3]; over 100 µM in assay [4]; 3.23 µM in assay [5]; over 100 µM in [6]. The TGI in assay [7] came to 0.574 µM; in [9], 0.0747 µM.
